Test systems include 786-0 renal; EKVX NSCLC; K-562 leukemia; NCI-H23 lung; NCI-H522 lung; NCI/ADR-RES ovarian; OVCAR-5 ovarian; RXF 393 renal; SK-MEL-28 melanoma; SN12C renal.
What all share (test): DTP human tumour cell line panel, 48 h

Molecules are shown by their SMILES. “And” between values parts separate entries of the source, which are not always exact repeats. Equal entries are not always repeated.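 Interpolation was linear, between the two tested concentrations surrounding the appropriate level; five concentrations were tested over 48 hours in 96-well plates. At the GI50, growth is halved. TGI denotes the concentration required for complete inhibition of growth.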 Bounds are passed on as bounds.

As a reminder, the GI50 is the concentration that inhibits growth by half. One may read the TGI as the concentration giving total growth inhibition. Read a high TGI as less potent growth arrest. `Cn1c(-c2ccccc2)c(/C=C/C2=[N+](C)c3ccccc3C2(C)C)c2ccccc21`: the GI50 in the assay on 786-0 renal was 2.18 µM; in the assay on EKVX NSCLC, 0.397 µM; in the assay with K-562 leukemia, 0.128 µM; with NCI-H23 lung it was 0.784 µM; with NCI-H522 lung it was 0.863 µM; in the assay on NCI/ADR-RES ovarian, 9.8 µM. Also, the GI50 in the assay with OVCAR-5 ovarian is 3.96 µM; in the assay with RXF 393 renal, 2.55 µM; in the assay with SK-MEL-28 melanoma it was 1.19 µM; in the assay on SN12C renal, 1.7 µM. Also, the TGI is 9.02 µM with 786-0 renal; 10.4 µM in the assay with EKVX NSCLC; 5.3 µM in the assay on K-562 leukemia; 5.17 µM in the assay with NCI-H23 lung; 3.78 µM in the assay with NCI-H522 lung; 72.3 µM in the assay on NCI/ADR-RES ovarian. Also, the TGI was 20 µM in the assay with OVCAR-5 ovarian, 12.6 µM in the assay with RXF 393 renal, 11.8 µM in the assay with SK-MEL-28 melanoma and 12.8 µM with SN12C renal.
Consider `CCCCCCCC(=O)SCC/C=C/[C@@H]1CC(=O)NCc2nc(cs2)C2=N[C@@](C)(CS2)C(=O)N[C@@H](C(C)C)C(=O)N1`, for which the GI50 in the assay with 786-0 renal is 0.139 µM; in the assay on EKVX NSCLC it was 0.0662 µM; in the assay on K-562 leukemia, 0.0182 µM; with NCI-H23 lung it was 0.0399 µM; with NCI-H522 lung, 0.0278 µM; in the assay with NCI/ADR-RES ovarian it was 26.7 µM. Besides, the GI50 was 0.0118 µM in the assay with OVCAR-5 ovarian, less than 0.0112 µM with RXF 393 renal, 0.0185 µM with SK-MEL-28 melanoma and 0.034 µM with SN12C renal. The TGI was 19.7 µM in the assay on 786-0 renal; more than 100 µM in the assay with EKVX NSCLC; more than 100 µM in the assay on K-562 leukemia; 20.8 µM with NCI-H23 lung; 11.1 µM in the assay on NCI-H522 lung; more than 100 µM in the assay with NCI/ADR-RES ovarian. Also, the TGI in the assay on OVCAR-5 ovarian was more than 100 µM; in the assay on RXF 393 renal, 0.0695 µM; in the assay on SK-MEL-28 melanoma it was 25.8 µM; in the assay with SN12C renal, more than 100 µM.
In the case of `CC(=O)OC12c3ccccc3-c3ccccc3C1C(C(=O)O)C2C(=O)O` (centres undefined), the TGI with 786-0 renal, with EKVX NSCLC, in the assay with K-562 leukemia, in the assay on NCI-H23 lung, in the assay on NCI-H522 lung and in the assay on NCI/ADR-RES ovarian was more than 10 µM in each case. Further, the TGI in the assay with OVCAR-5 ovarian, in the assay on RXF 393 renal, in the assay on SK-MEL-28 melanoma and in the assay with SN12C renal was more than 10 µM throughout.
Regarding `Cc1ccc2c(c1)C(=O)c1c-2c(OCCCN(C)C)nc2ccccc12`, the GI50 in the assay with 786-0 renal was 2.98 µM; in the assay on EKVX NSCLC, 2.42 µM; in the assay with K-562 leukemia, 1.11 µM; in the assay on NCI-H23 lung it was 1.66 µM; in the assay with NCI-H522 lung, 1.35 µM; in the assay with NCI/ADR-RES ovarian it was 1.24 µM. The GI50 in the assay on OVCAR-5 ovarian was 1.47 µM; in the assay on RXF 393 renal it was 2.26 µM; with SK-MEL-28 melanoma, 1.76 µM; in the assay on SN12C renal, 2.67 µM. The TGI was determined as 18.1 µM in the assay with 786-0 renal; 13.5 µM in the assay on EKVX NSCLC; 2.98 µM in the assay on K-562 leukemia; 4.48 µM in the assay with NCI-H23 lung; 3.72 µM in the assay with NCI-H522 lung; 6.53 µM in the assay on NCI/ADR-RES ovarian. For the same molecule, the TGI came out at 3.65 µM with OVCAR-5 ovarian, 12.7 µM in the assay on RXF 393 renal, 3.41 µM in the assay on SK-MEL-28 melanoma and 17.7 µM with SN12C renal.
In the case of `O=C(C#Cc1ccccc1)C1=Cc2ccccc2OC1`, the TGI in the assay on 786-0 renal was 6.17 µM; in the assay on EKVX NSCLC, 6.12 µM; with K-562 leukemia it was more than 100 µM; in the assay on NCI-H23 lung, 5.47 µM; in the assay on NCI-H522 lung, 3.42 µM; in the assay on NCI/ADR-RES ovarian it was 14.4 µM. Moreover, the TGI was 15 µM with OVCAR-5 ovarian, 9.78 µM with RXF 393 renal, more than 65.7 µM in the assay with SK-MEL-28 melanoma and more than 100 µM in the assay with SN12C renal.
For `Cc1c(N)nc(C(CC(N)=O)NCC(N)C(N)=O)nc1C(=O)NC(C(=O)NC(C)C(O)C(C)C(=O)NC(C(=O)NCCc1nc(-c2nc(C(=O)NCCCNC(C)c3ccccc3)cs2)cs1)C(C)O)C(OC1OC(CO)C(O)C(O)C1OC1OC(CO)C(O)C(OC(N)=O)C1O)c1cnc[nH]1` (centres undefined), the GI50 in the assay with 786-0 renal is 1.38 µM; in the assay on EKVX NSCLC, more than 100 µM; in the assay on K-562 leukemia, 11.8 µM; in the assay with NCI-H23 lung, 3.31 µM; in the assay with NCI-H522 lung, 4.1 µM; in the assay on OVCAR-5 ovarian, 2.21 µM. Moreover, the GI50 in the assay with SN12C renal was 5.99 µM. Moreover, the TGI in the assay on 786-0 renal is 43.7 µM and 33.9 µM; with EKVX NSCLC it was 50 µM and > 100 µM; in the assay on K-562 leukemia it was 50 µM and > 100 µM; in the assay with NCI-H23 lung, 8.37 µM and 64.6 µM; in the assay with NCI-H522 lung it was 20 µM and 44.3 µM; in the assay on NCI/ADR-RES ovarian, 45.5 µM. The TGI in the assay with OVCAR-5 ovarian is 47.2 µM and > 100 µM; in the assay with RXF 393 renal, 2.82 µM; in the assay with SK-MEL-28 melanoma, 50 µM; in the assay on SN12C renal, 29.3 µM and > 100 µM.
On to `Nc1nc2cc(CC[C@H]3C[C@@H](n4ccc5c(N)ncnc54)[C@H](O)[C@@H]3O)ccc2cc1Br`, for which the GI50 was 12.7 µM in the assay with 786-0 renal; 4.22 µM in the assay with EKVX NSCLC; 1.38 µM in the assay on K-562 leukemia; 2.07 µM in the assay with NCI-H23 lung; 9.26 µM in the assay with NCI-H522 lung; 10.5 µM with NCI/ADR-RES ovarian. The GI50 is 14.2 µM in the assay on OVCAR-5 ovarian, 6.95 µM with RXF 393 renal, 12.2 µM in the assay with SK-MEL-28 melanoma and 8.59 µM with SN12C renal. Moreover, the TGI with 786-0 renal was 28.9 µM; with EKVX NSCLC it was 22 µM; in the assay on K-562 leukemia, more than 100 µM; in the assay on NCI-H23 lung, 23.9 µM; in the assay on NCI-H522 lung, 28.8 µM; in the assay on NCI/ADR-RES ovarian, 26.9 µM. For the same molecule, the TGI amounted to 30.1 µM in the assay with OVCAR-5 ovarian, 22.9 µM in the assay with RXF 393 renal, 25.4 µM in the assay on SK-MEL-28 melanoma and 22.4 µM in the assay on SN12C renal.
Take `CO[C@H]1C[C@](C)(O)Cc2cc3c(c(O)c21)C(=O)c1c(O)cc2c(c1C3=O)O[C@@H]1O[C@@]2(C)[C@H](O)[C@@H](N(C)C)[C@@H]1O`: the GI50 is 0.302 µM in the assay on 786-0 renal; 2.4 µM in the assay with EKVX NSCLC; 1.42 µM in the assay on NCI-H522 lung; 1.37 µM in the assay on OVCAR-5 ovarian; 1.9 µM with RXF 393 renal; 1.62 µM in the assay with SK-MEL-28 melanoma. In addition, the GI50 with SN12C renal is 0.56 µM. Also, the TGI in the assay with 786-0 renal is 1.8 µM and 2.18 µM; in the assay with EKVX NSCLC it was 6.5 µM and 13 µM; in the assay with K-562 leukemia, 6.65 µM and 15.7 µM; with NCI-H23 lung it was 2.03 µM and 6.54 µM; in the assay on NCI-H522 lung, 3.67 µM and 8.17 µM; in the assay with NCI/ADR-RES ovarian, 27.8 µM. Further, the TGI in the assay on OVCAR-5 ovarian is 3.3 µM and 15 µM; in the assay with RXF 393 renal, 4.01 µM and 4.21 µM; with SK-MEL-28 melanoma it was 3.35 µM and 19.4 µM; in the assay with SN12C renal it was 2.57 µM and 3.48 µM.

Values taken from PubChem BioAssay (NCI).
